Test results reported in patent publication US20230271954A1 (Gossamer Bio Services, Inc., priority 2020, published 2023).

Columns and labels:
DGKζ = biological target: T1, DGKζ (Homo sapiens, UniProt Q13574); assay: DGKζ biochemical assay (ADP-Glo); conditions: read-out: DGK ζ IC50
T1 construct: purchased Carna 12-110

DGKα = DGKα (Homo sapiens, UniProt P23743); assay: DGKα biochemical assay (ADP-Glo); conditions: read-out: DGK α IC50
Outline: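 ADP-Glo kinase assay using OAG/PS (1:2) lipid substrate, sonicated, in HEPES pH 7.0 buffer with MgCl2, CaCl2, DTT, BSA, Triton X-100. Enzyme preincubated with compound 30 min at RT; substrate with ATP (DGKα: 400 μM) added, 45 min RT. Luminescence read; % inhibition vs DMSO and no-enzyme controls.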

T1 sequence (Q13574 1-929 isoform Q13574-4): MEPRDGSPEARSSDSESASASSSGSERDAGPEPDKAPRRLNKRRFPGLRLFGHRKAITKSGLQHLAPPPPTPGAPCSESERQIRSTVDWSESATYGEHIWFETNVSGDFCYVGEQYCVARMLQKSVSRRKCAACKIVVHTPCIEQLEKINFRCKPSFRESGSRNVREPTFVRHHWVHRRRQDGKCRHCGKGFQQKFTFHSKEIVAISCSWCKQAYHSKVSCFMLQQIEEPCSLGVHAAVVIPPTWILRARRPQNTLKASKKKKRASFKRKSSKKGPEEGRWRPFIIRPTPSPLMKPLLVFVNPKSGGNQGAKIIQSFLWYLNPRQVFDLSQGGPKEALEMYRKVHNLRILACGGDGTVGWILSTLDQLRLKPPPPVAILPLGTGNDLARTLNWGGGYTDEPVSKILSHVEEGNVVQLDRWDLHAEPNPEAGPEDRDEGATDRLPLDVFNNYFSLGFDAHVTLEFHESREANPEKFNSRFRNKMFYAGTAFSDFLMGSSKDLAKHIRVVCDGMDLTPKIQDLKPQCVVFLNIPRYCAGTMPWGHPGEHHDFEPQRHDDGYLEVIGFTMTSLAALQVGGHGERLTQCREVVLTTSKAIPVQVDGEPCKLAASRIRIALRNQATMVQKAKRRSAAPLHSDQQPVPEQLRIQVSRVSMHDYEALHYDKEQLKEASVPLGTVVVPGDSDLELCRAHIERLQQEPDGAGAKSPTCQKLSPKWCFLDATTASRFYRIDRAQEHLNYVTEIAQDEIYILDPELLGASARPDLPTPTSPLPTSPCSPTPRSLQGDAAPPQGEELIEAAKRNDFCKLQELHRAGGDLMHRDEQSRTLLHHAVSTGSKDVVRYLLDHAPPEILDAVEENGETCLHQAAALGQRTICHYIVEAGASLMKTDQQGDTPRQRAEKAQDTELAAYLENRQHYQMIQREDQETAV
Chain of DGKα (P23743 whole entry): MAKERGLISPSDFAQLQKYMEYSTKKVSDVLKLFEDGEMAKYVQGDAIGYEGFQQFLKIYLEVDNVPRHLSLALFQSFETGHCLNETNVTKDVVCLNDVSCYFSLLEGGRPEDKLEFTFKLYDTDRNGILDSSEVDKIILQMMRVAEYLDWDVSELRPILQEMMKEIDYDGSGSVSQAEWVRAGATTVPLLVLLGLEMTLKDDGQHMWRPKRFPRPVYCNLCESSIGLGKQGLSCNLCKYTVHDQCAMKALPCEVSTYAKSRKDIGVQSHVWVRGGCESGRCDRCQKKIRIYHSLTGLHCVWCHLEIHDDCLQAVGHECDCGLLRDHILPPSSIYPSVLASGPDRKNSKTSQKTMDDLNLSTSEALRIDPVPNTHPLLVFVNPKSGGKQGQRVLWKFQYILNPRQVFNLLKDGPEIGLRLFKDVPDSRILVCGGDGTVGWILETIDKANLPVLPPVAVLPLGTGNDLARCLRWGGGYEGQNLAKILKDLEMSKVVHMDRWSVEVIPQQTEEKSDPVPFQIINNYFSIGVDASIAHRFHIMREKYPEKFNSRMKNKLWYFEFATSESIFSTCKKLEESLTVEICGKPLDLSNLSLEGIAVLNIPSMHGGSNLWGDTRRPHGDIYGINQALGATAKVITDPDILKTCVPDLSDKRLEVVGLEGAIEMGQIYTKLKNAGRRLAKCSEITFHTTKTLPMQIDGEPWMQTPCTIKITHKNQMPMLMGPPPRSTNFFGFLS

SMILES | IC50 (DGKζ) [µM] | IC50 (DGKα) [µM]
Cc1ccc(N(CC2CCC2)[C@H]2CC[C@@H](N(C)c3cc(=O)n(C)c4ccc(C#N)nc34)CC2)cc1OC(F)F [Example 147, cis-8-((-4-((cyclobutylmethyl)(3-(difluoromethoxy)-4-methylphenyl)amino)cyclohexyl)(methyl)amino)-5-methyl-6-oxo-5,6-dihydro-1,5-naphthyridine-2-carbonitrile] | 0.1 to 1 | 0.01 to 0.1
Cc1ccc(N(CC2CCC2)[C@H]2CC[C@@H](N(C)c3c(C#N)c(=O)n(C)c4ccc(C#N)nc34)CC2)cc1OC(F)F [Example 148, cis-8-((-4-((cyclobutylmethyl)(3-(difluoromethoxy)-4-methylphenyl)amino)cyclohexyl)(methyl)amino)-5-methyl-6-oxo-5,6-dihydro-1,5-naphthyridine-2,7-dicarbonitrile] | 0.01 to 0.1 | 0.01 to 0.1
Cn1c(=O)c(C#N)c(N(C)[C@H]2CC[C@H](N(CC3COCCO3)c3ccc(F)cc3)CC2)c2nc(C#N)ccc21 (stereo partly drawn) [Example 149, trans-8-((-4-(((1,4-dioxan-2-yl)methyl)(4-fluorophenyl)amino)cyclohexyl)(methyl)amino)-5-methyl-6-oxo-5,6-dihydro-1,5-naphthyridine-2,7-dicarbonitrile] | 0.1 to 1 | 0.1 to 1
Cc1cc2c(cc1N(CC1CCC1)[C@H]1CC[C@@H](N(C)c3cc(=O)n(C)c4ccc(C#N)nc34)CC1)OCO2 [Example 150, cis-8-((4-((cyclobutylmethyl)(6-methylbenzo[d][1,3]dioxol-5-yl)amino)cyclohexyl)(methyl)amino)-5-methyl-6-oxo-5,6-dihydro-1,5-naphthyridine-2-carbonitrile] | 0.01 to 0.1 | 0.1 to 1
Cc1cc2c(cc1N(CC1CCC1)[C@H]1CC[C@@H](N(C)c3c(C#N)c(=O)n(C)c4ccc(Cl)nc34)CC1)OCO2 [Example 151, cis-6-chloro-4-((4-((cyclobutylmethyl)(6-methylbenzo[d][1,3]dioxol-5-yl)amino)cyclohexyl) (methyl)amino)-1-methyl-2-oxo-1,2-dihydro-1,5-naphthyridine-3-carbonitrile] | ≥ 1 | ≥ 1
Cc1cc2c(cc1N(CC1CCC1)[C@H]1CC[C@@H](N(C)c3c(C#N)c(=O)n(C)c4ccc(C#N)nc34)CC1)OCO2 [Example 152, cis-8-((4-((cyclobutylmethyl)(6-methylbenzo[d][1,3]dioxol-5-yl)amino)cyclohexyl)(methyl)amino)-5-methyl-6-oxo-5,6-dihydro-1,5-naphthyridine-2,7-dicarbonitrile] | ≥ 1 | ≥ 1
Cn1c(=O)c(C#N)c(N(C)[C@H]2CC[C@H](N(CC3CCC3)c3ccc(F)cc3CO)CC2)c2nc(Cl)ccc21 [Example 154, trans-6-chloro-4-((4-((cyclobutylmethyl)(4-fluoro-2-(hydroxymethyl)phenyl)amino)cyclohexyl)(methyl)amino)-1-methyl-2-oxo-1,2-dihydro-1,5-naphthyridine-3-carbonitrile] | ≥ 1 | ≥ 1
Cn1c(=O)c(C#N)c(N(C)[C@H]2CC[C@H](N(CC3CCC3)c3ccc(F)cc3CO)CC2)c2nc(C#N)ccc21 [Example 155, trans-8-((4-((cyclobutylmethyl)(4-fluoro-2-(hydroxymethyl)phenyl)amino)cyclohexyl)(methyl)amino)-5-methyl-6-oxo-5,6-dihydro-1,5-naphthyridine-2,7-dicarbonitrile] | 0.01 to 0.1 | 0.01 to 0.1
Cn1c(=O)cc(N(C)[C@H]2CC[C@@H](N(CC3CCOC3)c3ccc(F)c(OC(F)F)c3)CC2)c2nc(C#N)ccc21 (stereo partly drawn) [Example 156, cis-8-((-4-((3-(difluoromethoxy)-4-fluorophenyl) ((tetrahydrofuran-3-yl)methyl)amino)cyclohexyl) (methyl)amino)-5-methyl-6-oxo-5,6-dihydro-1,5-naphthyridine-2-carbonitrile] | 0.1 to 1 | 0.1 to 1
Cc1cc(N(CC2CCOC2)[C@H]2CC[C@@H](N(C)c3cc(=O)n(C)c4ccc(C#N)nc34)CC2)ccc1F (stereo partly drawn) [Example 157, cis-8-((-4-((4-fluoro-3-methylphenyl) ((tetrahydrofuran-3-yl)methyl)amino)cyclohexyl) (methyl)amino)-5-methyl-6-oxo-5,6-dihydro-1,5-naphthyridine-2-carbonitrile] | 0.1 to 1 | 0.01 to 0.1
Cn1c(=O)c(C#N)c(N(C)[C@H]2CC[C@@H](N(CC3CCOC3)c3ccc(F)c(OC(F)F)c3)CC2)c2nc(C#N)ccc21 (stereo partly drawn) [Example 158, cis-8-((-4-((3-(difluoromethoxy)-4-fluorophenyl) ((tetrahydrofuran-3-yl)methyl)amino)cyclohexyl) (methyl)amino)-5-methyl-6-oxo-5,6-dihydro-1,5-naphthyridine-2,7-dicarbonitrile] | 0.01 to 0.1 | 0.01 to 0.1
Cc1cc(N(CC2CCOC2)[C@H]2CC[C@@H](N(C)c3c(C#N)c(=O)n(C)c4ccc(C#N)nc34)CC2)ccc1F (stereo partly drawn) [Example 159, cis-8-((-4-((4-fluoro-3-methylphenyl) ((tetrahydrofuran-3-yl)methyl)amino)cyclohexyl) (methyl)amino)-5-methyl-6-oxo-5,6-dihydro-1,5-naphthyridine-2,7-dicarbonitrile] | 0.01 to 0.1 | 0.01 to 0.1
Cn1c(=O)c(C#N)c(N(C)[C@H]2CC[C@@H](N(CC3CCC3)c3cc4c(cc3F)OCO4)CC2)c2nc(C#N)ccc21 [Example 160, cis-8-((-4-((cyclobutylmethyl)(6-fluorobenzo[d][1,3]dioxol-5-yl)amino)cyclohexyl)(methyl)amino)-5-methyl-6-oxo-5,6-dihydro-1,5-naphthyridine-2,7-dicarbonitrile] | 0.01 to 0.1 | < 0.01
Cn1c(=O)cc(N(C)[C@H]2CC[C@@H](N(CC3CCC3)c3cc4c(cc3F)OCO4)CC2)c2nc(C#N)ccc21 [Example 161, cis-8-((-4-((cyclobutylmethyl)(6-fluorobenzo[d][1,3]dioxol-5-yl)amino)cyclohexyl)(methyl)amino)-5-methyl-6-oxo-5,6-dihydro-1,5-naphthyridine-2-carbonitrile] | 0.01 to 0.1 | < 0.01
Cc1ccc(N(CC2CCOC2)[C@H]2CC[C@@H](N(C)c3cc(=O)n(C)c4ccc(C#N)nc34)CC2)cc1OC(F)F (stereo partly drawn) [Example 162, cis-8-((-4-((3-(difluoromethoxy)-4-methylphenyl) ((tetrahydrofuran-3-yl)methyl)amino)cyclohexyl) (methyl)amino)-5-methyl-6-oxo-5,6-dihydro-1,5-naphthyridine-2-carbonitrile] | 0.1 to 1 | 0.1 to 1
Cn1c(=O)cc(N(C)[C@H]2CC[C@@H](N(CC3COCCO3)c3ccc(F)cc3)CC2)c2nc(C#N)ccc21 (stereo partly drawn) [Example 163, cis-8-((-4-(((1,4-dioxan-2-yl)methyl)(4-fluorophenyl)amino)cyclohexyl)(methyl)amino)-5-methyl-6-oxo-5,6-dihydro-1,5-naphthyridine-2-carbonitrile] | 0.1 to 1 | < 0.01
Cc1cc(F)ccc1N(CC1CCOC1)[C@H]1CC[C@@H](N(C)c2cc(=O)n(C)c3ccc(C#N)nc23)CC1 (stereo partly drawn) [Example 164, cis-8-((-4-((4-fluoro-2-methylphenyl) ((tetrahydrofuran-3-yl)methyl)amino)cyclohexyl) (methyl)amino)-5-methyl-6-oxo-5,6-dihydro-1,5-naphthyridine-2-carbonitrile] | 0.1 to 1 | 0.1 to 1
Cc1cc(F)ccc1N(C[C@H]1CCOC1)[C@H]1CC[C@H](N(C)c2c(C#N)c(=O)n(C)c3ccc(C#N)nc23)CC1 [Example 165, trans-8-((-4-((4-fluoro-2-methylphenyl)(((R)-tetrahydrofuran-3-yl)methyl)amino)cyclohexyl) (methyl)amino)-5-methyl-6-oxo-5,6-dihydro-1,5-naphthyridine-2,7-dicarbonitrile] | 0.1 to 1 | 0.1 to 1
Cc1cc(F)ccc1N(C[C@@H]1CCOC1)[C@H]1CC[C@H](N(C)c2c(C#N)c(=O)n(C)c3ccc(C#N)nc23)CC1 [Example 166, trans-8-((-4-((4-fluoro-2-methylphenyl)(((S)-tetrahydrofuran-3-yl)methyl)amino)cyclohexyl) (methyl)amino)-5-methyl-6-oxo-5,6-dihydro-1,5-naphthyridine-2,7-dicarbonitrile] | 0.1 to 1 | ≥ 1
Cc1cc(F)ccc1N(C[C@H]1CCCO1)[C@H]1CC[C@H](N(C)c2c(C#N)c(=O)n(C)c3ccc(C#N)nc23)CC1 [Example 167, trans-8-((-4-((4-fluoro-2-methylphenyl)(((R)-tetrahydrofuran-2-yl)methyl)amino)cyclohexyl) (methyl)amino)-5-methyl-6-oxo-5,6-dihydro-1,5-naphthyridine-2,7-dicarbonitrile] | 0.01 to 0.1 | 0.1 to 1
Cc1cc(F)ccc1N(C[C@@H]1CCCO1)[C@H]1CC[C@H](N(C)c2c(C#N)c(=O)n(C)c3ccc(C#N)nc23)CC1 [Example 168, trans-8-((-4-((4-fluoro-2-methylphenyl)(((S)-tetrahydrofuran-2-yl)methyl)amino)cyclohexyl) (methyl)amino)-5-methyl-6-oxo-5,6-dihydro-1,5-naphthyridine-2,7-dicarbonitrile] | 0.1 to 1 | ≥ 1
Cn1c(=O)cc(N(C)[C@H]2CC[C@@H](N(CC3CCC3)c3ccc4c(c3)OCCO4)CC2)c2nc(C#N)ccc21 [Example 169, cis-8-((4-((cyclobutylmethyl)(2,3-dihydrobenzo[b] [1,4]dioxin-6-yl)amino)cyclohexyl)(methyl)amino)-5-methyl-6-oxo-5,6-dihydro-1,5-naphthyridine-2-carbonitrile] | 0.01 to 0.1 | 0.01 to 0.1
